Experimental data published in ChEMBL document CHEMBL4842324, “PdCl2-catalyzed synthesis of a new class of isocoumarin derivatives containing aminosulfonyl / aminocarboxamide moiety: First identification of a isocoumarin based PDE4 inhibitor” (Eur J Med Chem, 2021).
The source made the active and inactive calls. The rule behind the calls is not given here.

What was measured:
[1] = biological target: T1, 3',5'-cyclic-AMP phosphodiesterase 4B (Homo sapiens, UniProt Q07343); assay: Inhibition of PDE4B (unknown origin) using [3H]cAMP as substrate at 10 uM incubated for 30 mins by scintillation proximity assay relative to control
[2] = biological target: T1, 3',5'-cyclic-AMP phosphodiesterase 4B; assay: Inhibition of PDE4B (unknown origin) using [3H]cAMP as substrate incubated for 30 mins by scintillation proximity assay
[3] = biological target: 3',5'-cyclic-AMP phosphodiesterase 4D (Homo sapiens, UniProt Q08499); assay: Inhibition of PDE4D (unknown origin)
[4] = species on record: Homo sapiens; assay: Selectivity ratio of IC50 for PDE4D (unknown origin) to IC50 for PDE4B (unknown origin)
[5] = biological target: Dual specificity calcium/calmodulin-dependent 3',5'-cyclic nucleotide phosphodiesterase 1A (Homo sapiens) (UniProt P54750); assay: Inhibition of PDE1A1 (unknown origin) at 10 uM relative to control
[6] = biological target: Dual specificity calcium/calmodulin-dependent 3',5'-cyclic nucleotide phosphodiesterase 1B (Homo sapiens) (UniProt Q01064); assay: Inhibition of PDE1B (unknown origin) at 10 uM relative to control
[7] = biological target: Dual specificity calcium/calmodulin-dependent 3',5'-cyclic nucleotide phosphodiesterase 1C (Homo sapiens) (UniProt Q14123); assay: Inhibition of PDE1C (unknown origin) at 10 uM relative to control
[8] = biological target: cGMP-dependent 3',5'-cyclic phosphodiesterase (Homo sapiens) (UniProt O00408); assay: Inhibition of PDE2A1 (unknown origin) at 10 uM relative to control
[9] = biological target: cGMP-inhibited 3',5'-cyclic phosphodiesterase 3A (Homo sapiens) (UniProt Q14432); assay: Inhibition of PDE3A (unknown origin) at 10 uM relative to control
[10] = biological target: cGMP-inhibited 3',5'-cyclic phosphodiesterase 3B (Homo sapiens) (UniProt Q13370); assay: Inhibition of PDE3B (unknown origin) at 10 uM relative to control
[11] = biological target: cGMP-specific 3',5'-cyclic phosphodiesterase (Homo sapiens) (UniProt O76074); assay: Inhibition of PDE5A1 (unknown origin) at 10 uM relative to control
[12] = biological target: Cone cGMP-specific 3',5'-cyclic phosphodiesterase subunit alpha' (Homo sapiens) (UniProt P51160); assay: Inhibition of PDE6C (unknown origin) at 10 uM relative to control
[13] = biological target: High affinity 3',5'-cyclic-AMP phosphodiesterase 7A (Homo sapiens) (UniProt Q13946); assay: Inhibition of PDE7A1 (unknown origin) at 10 uM relative to control
[14] = biological target: 3',5'-cyclic-AMP phosphodiesterase 7B (Homo sapiens) (UniProt Q9NP56); assay: Inhibition of PDE7B (unknown origin) at 10 uM relative to control
[15] = biological target: High affinity cAMP-specific and IBMX-insensitive 3',5'-cyclic phosphodiesterase 8A (Homo sapiens) (UniProt O60658); assay: Inhibition of PDE8A1 (unknown origin) at 10 uM relative to control
[16] = biological target: High affinity cGMP-specific 3',5'-cyclic phosphodiesterase 9A (Homo sapiens) (UniProt O76083); assay: Inhibition of PDE9A2 (unknown origin) at 10 uM relative to control
[17] = biological target: cAMP and cAMP-inhibited cGMP 3',5'-cyclic phosphodiesterase 10A (Homo sapiens) (UniProt Q9Y233); assay: Inhibition of PDE10A1 (unknown origin) at 10 uM relative to control
[18] = biological target: cAMP and cAMP-inhibited cGMP 3',5'-cyclic phosphodiesterase 10A (Homo sapiens) (UniProt Q9Y233); assay: Inhibition of PDE10A2 (unknown origin) at 10 uM relative to control
[19] = biological target: Dual 3',5'-cyclic-AMP and -GMP phosphodiesterase 11A (Homo sapiens) (UniProt Q9HCR9); assay: Inhibition of PDE11A4 (unknown origin) at 10 uM relative to control
[20] = biological target: Tumor necrosis factor (Homo sapiens) (UniProt P01375); assay: Inhibition of TNF-alpha (unknown origin) at 10 uM relative to control
[21] = biological target: Tumor necrosis factor (Homo sapiens) (UniProt P01375); assay: Inhibition of TNF-alpha (unknown origin) at 3 uM relative to control
[22] = biological target: Tumor necrosis factor (Homo sapiens) (UniProt P01375); assay: Inhibition of TNF-alpha (unknown origin) at 1 uM relative to control
[23] = biological target: Tumor necrosis factor (Homo sapiens) (UniProt P01375); assay: Inhibition of TNF-alpha (unknown origin) at 0.3 uM relative to control
[24] = tested on: Rattus norvegicus; assay: Antiinflammatory activity against complete Freund's adjuvant induced ip dosed rat model of arthritis assessed as reduction in paw swelling measured on day 21 by macroscopic analysis; format: functional, organism-based; conditions: time 21.0 day
[25] = tested on: Rattus norvegicus; assay: Antiinflammatory activity against complete Freund's adjuvant induced rat model of arthritis assessed as reduction in paw volume at 30 mg/kg, ip measured on day 21 by macroscopic analysis; format: functional, organism-based; conditions: time 21.0 day
[26] = tested on: Rattus norvegicus; assay: Antiinflammatory activity against complete Freund's adjuvant induced rat model of arthritis assessed as improvement in intestinal absorption at 30 mg/kg, ip measured on day 21; format: functional, organism-based; conditions: time 21.0 day
[27] = tested on: Rattus norvegicus; assay: Antiinflammatory activity against complete Freund's adjuvant induced rat model of arthritis assessed as decrease in pathological changes at 30 mg/kg, ip measured on day 21 by H and E staining based histopathological analysis; format: functional, organism-based; conditions: time 21.0 day
[28] = tested on: Rattus norvegicus; assay: Antiinflammatory activity against complete Freund's adjuvant induced rat model of arthritis assessed as reduction in joint degeneration changes at 30 mg/kg, ip measured on day 21 by H and E staining based histopathological analysis; format: functional, organism-based; conditions: time 21.0 day
[29] = tested on: Rattus norvegicus; assay: Antiinflammatory activity against complete Freund's adjuvant induced rat model of arthritis assessed as decrease in TNF-alpha expression at 10 to 30 mg/kg, ip by immunohistochemical staining based assay; format: functional, organism-based; conditions: dose 10-30 mg/kg
[30] = tested on: Rattus norvegicus; assay: Antiinflammatory activity against complete Freund's adjuvant induced rat model of arthritis assessed as effect on IL-6 expression at 10 to 30 mg/kg, ip by immunohistochemical staining based assay; format: functional, organism-based; conditions: dose 10-30 mg/kg
[31] = tested on: RAW264.7; assay: Cytotoxicity against mouse RAW264.7 cells assessed as reduction in cell viability measured after 48 hrs by MTT assay; format: cell-based; conditions: RAW264.7, 48 h
[32] = Toxicity in zebrafish embryos assessed as teratogenicity at 1 to 100 uM; design: species or system Danio rerio; conditions: in vivo, dose 1-100 µM
[33] = Hepatotoxicity in zebrafish embryos assessed as effect on liver size at 1 to 100 uM; format: toxicity, Danio rerio; conditions: in vivo, dose 1-100 µM
[34] = Hepatotoxicity in zebrafish embryos assessed as liver degeneration at 1 to 100 uM; format: toxicity, Danio rerio; conditions: in vivo, dose 1-100 µM
[35] = Cardiac toxicity in zebrafish embryos assessed as effect on heart rate at 1 to 100 uM; design: species or system Danio rerio; conditions: in vivo, dose 1-100 µM
[36] = Toxicity in zebrafish embryos assessed as induction of apoptosis at 1 to 100 uM; design: species or system Danio rerio; conditions: dose 1-100 µM
[37] = biological target: Tumor necrosis factor (Homo sapiens) (UniProt P01375); assay: Inhibition of TNF-alpha (unknown origin) at 0.1 uM relative to control
[38] = tested on: Rattus norvegicus; assay: Antiinflammatory activity against complete Freund's adjuvant induced rat model of arthritis assessed as reduction in paw volume at 1 mg/kg, po administered once daily measured on day 21 by macroscopic analysis; format: functional, organism-based; conditions: time 21.0 day
[39] = tested on: Rattus norvegicus; assay: Antiinflammatory activity against complete Freund's adjuvant induced rat model of arthritis assessed as reduction in joint structure deformity at 1 mg/kg, ip measured on day 21 by radiographic analysis; format: functional, organism-based; conditions: time 21.0 day

Chain of Tumor necrosis factor (Homo sapiens) (P01375 whole entry): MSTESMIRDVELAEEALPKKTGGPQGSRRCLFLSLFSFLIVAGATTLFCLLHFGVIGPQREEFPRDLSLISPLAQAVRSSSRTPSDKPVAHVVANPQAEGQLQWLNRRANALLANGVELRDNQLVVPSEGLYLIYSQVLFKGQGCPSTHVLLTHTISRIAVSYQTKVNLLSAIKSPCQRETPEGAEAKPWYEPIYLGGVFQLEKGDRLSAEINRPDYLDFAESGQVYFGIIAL
T1 sequence (Q07343 whole entry): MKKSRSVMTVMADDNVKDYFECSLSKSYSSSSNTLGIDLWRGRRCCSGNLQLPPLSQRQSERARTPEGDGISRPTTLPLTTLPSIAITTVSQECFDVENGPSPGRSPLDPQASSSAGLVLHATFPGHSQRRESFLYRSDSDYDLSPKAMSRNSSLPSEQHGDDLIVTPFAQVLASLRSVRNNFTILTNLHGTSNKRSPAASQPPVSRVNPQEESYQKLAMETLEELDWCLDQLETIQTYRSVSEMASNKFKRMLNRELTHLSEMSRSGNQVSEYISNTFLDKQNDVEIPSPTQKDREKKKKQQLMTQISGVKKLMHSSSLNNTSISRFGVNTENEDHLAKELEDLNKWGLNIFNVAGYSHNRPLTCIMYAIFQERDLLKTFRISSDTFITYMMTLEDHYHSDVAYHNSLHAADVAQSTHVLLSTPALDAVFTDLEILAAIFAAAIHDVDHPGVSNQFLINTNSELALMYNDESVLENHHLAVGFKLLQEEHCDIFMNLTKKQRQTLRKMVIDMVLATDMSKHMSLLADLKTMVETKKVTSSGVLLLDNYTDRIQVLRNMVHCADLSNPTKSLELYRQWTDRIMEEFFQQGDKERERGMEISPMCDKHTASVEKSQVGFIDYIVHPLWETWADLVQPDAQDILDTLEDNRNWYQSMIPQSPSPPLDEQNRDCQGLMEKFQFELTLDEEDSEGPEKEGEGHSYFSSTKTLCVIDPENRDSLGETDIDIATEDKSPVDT
Chain of cAMP and cAMP-inhibited cGMP 3',5'-cyclic phosphodiesterase 10A (Homo sapiens) (Q9Y233 whole entry): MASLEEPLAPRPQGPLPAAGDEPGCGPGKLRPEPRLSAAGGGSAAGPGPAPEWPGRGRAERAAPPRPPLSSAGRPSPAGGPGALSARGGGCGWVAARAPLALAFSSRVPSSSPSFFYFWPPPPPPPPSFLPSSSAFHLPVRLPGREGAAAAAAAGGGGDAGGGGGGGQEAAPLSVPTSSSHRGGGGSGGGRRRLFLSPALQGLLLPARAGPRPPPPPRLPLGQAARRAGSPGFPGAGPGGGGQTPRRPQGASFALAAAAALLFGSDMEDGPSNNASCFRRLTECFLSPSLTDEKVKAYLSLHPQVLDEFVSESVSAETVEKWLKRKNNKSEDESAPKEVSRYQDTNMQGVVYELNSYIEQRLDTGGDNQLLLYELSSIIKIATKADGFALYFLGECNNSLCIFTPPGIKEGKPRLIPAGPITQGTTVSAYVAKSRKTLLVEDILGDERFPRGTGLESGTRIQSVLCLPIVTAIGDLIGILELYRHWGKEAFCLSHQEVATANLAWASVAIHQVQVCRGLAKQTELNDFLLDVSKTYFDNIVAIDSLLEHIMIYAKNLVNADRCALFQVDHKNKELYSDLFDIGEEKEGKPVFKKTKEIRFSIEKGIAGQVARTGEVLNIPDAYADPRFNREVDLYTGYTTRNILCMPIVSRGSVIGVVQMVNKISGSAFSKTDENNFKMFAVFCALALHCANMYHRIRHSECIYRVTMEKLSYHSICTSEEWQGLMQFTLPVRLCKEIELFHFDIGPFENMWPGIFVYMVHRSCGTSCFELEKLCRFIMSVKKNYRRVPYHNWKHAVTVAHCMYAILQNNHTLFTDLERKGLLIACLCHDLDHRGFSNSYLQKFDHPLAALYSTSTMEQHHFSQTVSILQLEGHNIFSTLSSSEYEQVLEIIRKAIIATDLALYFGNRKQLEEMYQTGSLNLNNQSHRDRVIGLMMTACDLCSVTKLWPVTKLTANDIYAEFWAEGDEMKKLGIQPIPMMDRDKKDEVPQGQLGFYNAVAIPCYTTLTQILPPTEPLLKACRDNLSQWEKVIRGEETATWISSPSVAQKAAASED
Chain of 3',5'-cyclic-AMP phosphodiesterase 4D (Q08499 whole entry): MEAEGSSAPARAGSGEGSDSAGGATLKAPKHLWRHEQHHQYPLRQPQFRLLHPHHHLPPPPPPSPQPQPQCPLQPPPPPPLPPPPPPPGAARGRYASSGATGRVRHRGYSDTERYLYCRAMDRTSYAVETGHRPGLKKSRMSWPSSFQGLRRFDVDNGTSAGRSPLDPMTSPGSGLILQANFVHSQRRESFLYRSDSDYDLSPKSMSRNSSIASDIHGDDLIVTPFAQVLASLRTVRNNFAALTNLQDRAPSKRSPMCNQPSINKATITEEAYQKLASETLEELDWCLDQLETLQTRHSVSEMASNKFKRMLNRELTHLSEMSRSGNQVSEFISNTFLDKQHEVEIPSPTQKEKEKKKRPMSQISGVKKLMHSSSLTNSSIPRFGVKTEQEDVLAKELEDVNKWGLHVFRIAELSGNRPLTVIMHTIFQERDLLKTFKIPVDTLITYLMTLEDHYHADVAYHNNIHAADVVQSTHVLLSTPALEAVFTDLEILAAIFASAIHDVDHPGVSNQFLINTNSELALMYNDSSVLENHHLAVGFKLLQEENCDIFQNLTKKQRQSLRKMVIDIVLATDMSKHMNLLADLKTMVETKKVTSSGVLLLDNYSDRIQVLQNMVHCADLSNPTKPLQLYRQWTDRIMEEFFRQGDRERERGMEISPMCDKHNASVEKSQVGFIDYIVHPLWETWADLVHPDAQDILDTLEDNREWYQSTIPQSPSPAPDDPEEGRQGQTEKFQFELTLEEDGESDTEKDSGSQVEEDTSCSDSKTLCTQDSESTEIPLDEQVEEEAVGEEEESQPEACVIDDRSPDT
Chain of Cone cGMP-specific 3',5'-cyclic phosphodiesterase subunit alpha' (Homo sapiens) (P51160 whole entry): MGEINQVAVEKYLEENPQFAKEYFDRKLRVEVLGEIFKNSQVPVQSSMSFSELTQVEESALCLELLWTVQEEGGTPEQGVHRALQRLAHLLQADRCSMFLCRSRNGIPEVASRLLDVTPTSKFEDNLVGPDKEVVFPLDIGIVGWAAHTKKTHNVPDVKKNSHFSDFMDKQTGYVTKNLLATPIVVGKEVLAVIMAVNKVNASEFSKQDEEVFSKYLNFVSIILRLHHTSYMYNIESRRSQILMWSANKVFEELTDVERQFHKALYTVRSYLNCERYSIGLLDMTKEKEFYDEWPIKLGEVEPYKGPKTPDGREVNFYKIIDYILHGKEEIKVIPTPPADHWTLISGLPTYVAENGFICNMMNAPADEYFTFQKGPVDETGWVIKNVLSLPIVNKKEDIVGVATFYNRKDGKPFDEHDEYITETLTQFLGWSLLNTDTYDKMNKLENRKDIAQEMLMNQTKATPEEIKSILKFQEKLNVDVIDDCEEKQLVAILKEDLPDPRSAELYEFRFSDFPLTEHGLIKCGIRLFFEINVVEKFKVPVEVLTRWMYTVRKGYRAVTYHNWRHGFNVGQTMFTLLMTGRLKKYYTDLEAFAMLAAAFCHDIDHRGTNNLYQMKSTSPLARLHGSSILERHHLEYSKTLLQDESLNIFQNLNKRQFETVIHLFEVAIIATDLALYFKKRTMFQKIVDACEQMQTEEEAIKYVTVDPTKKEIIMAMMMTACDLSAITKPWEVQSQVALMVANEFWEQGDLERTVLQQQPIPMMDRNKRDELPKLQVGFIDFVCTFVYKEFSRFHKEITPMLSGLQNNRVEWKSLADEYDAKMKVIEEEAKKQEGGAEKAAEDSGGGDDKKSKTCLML
Chain of Dual specificity calcium/calmodulin-dependent 3',5'-cyclic nucleotide phosphodiesterase 1C (Homo sapiens) (Q14123 whole entry): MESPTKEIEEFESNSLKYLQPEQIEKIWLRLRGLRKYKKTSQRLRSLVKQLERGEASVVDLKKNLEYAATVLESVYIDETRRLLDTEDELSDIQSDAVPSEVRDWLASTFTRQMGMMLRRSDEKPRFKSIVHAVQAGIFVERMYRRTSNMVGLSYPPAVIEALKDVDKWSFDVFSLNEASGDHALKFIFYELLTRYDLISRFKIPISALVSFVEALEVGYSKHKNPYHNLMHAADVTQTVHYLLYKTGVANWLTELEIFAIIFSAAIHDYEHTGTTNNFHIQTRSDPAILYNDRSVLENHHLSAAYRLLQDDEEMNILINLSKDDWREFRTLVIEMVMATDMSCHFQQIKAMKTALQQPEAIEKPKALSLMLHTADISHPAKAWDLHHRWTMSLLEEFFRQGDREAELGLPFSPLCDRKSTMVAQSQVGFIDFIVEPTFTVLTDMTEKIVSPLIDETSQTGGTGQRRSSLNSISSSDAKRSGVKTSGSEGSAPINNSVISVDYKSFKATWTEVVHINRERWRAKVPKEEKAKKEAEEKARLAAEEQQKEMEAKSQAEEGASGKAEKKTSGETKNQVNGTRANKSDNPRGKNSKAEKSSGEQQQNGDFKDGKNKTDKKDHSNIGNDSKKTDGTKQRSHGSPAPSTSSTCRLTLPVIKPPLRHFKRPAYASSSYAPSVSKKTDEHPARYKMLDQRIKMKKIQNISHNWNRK
Chain of High affinity 3',5'-cyclic-AMP phosphodiesterase 7A (Homo sapiens) (Q13946 whole entry): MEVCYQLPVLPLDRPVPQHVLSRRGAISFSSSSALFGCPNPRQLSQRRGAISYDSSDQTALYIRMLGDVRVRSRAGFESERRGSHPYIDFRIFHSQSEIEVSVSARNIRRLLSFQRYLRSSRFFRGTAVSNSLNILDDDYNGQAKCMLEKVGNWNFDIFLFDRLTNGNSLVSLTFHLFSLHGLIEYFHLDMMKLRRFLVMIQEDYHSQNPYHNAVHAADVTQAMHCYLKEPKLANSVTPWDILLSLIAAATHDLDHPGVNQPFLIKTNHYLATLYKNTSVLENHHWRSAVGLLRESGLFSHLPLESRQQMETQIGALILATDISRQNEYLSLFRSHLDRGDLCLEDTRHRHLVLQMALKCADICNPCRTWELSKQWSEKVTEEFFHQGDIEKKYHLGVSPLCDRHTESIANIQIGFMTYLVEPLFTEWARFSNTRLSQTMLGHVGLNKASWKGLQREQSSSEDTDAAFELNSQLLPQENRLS

SMILES: C=CCc1c(-c2cccc(NS(=O)(=O)c3cccs3)c2)oc(=O)c2cc(F)ccc12
- inhibition [1]: 96%
- IC50 [2]: 540 nM
- IC50 [3]: 1340 nM
- Ratio IC50 [4]: 2.5
- inhibition [5]: 21%
- inhibition [6]: 18%
- inhibition [7]: 24%
- inhibition [8]: 9%
- inhibition [9]: 11%
- inhibition [10]: 7%
- inhibition [11]: 8%
- inhibition [12]: 10%
- inhibition [13]: 6%
- inhibition [14]: 3%
- inhibition [15]: 2%
- inhibition [16]: 8%
- inhibition [17]: 12%
- inhibition [18]: 19%
- inhibition [19]: 11%
- inhibition [20]: 65.5%
- inhibition [21]: 45.6%
- inhibition [22]: 40.3%
- inhibition [23]: 30.9%
- Activity [24]: Dose-Dependent Effect
- Activity [25]: Active
- Activity [26]: Active
- Activity [27]: Active
- Activity [28]: Active
- Activity [29]: Active
- Activity [30]: inactive
- IC50 [31]: > 100000 nM
- Activity [32]: Non-Toxic
- Activity [33]: Non-Toxic
- Activity [34]: Non-Toxic
- Activity [35]: Non-Toxic
- Activity [36]: Non-Toxic

SMILES: C=CCc1c(-c2cccc(NS(C)(=O)=O)c2)oc(=O)c2ccc(Cl)cc12
- inhibition [1]: 62.2%

SMILES: C=CCc1c(-c2cccc(NS(=O)(=O)c3ccccc3)c2)oc(=O)c2ccccc12
- inhibition [1]: 82.9%
- IC50 [2]: 1240 nM

SMILES: COc1ccc(C2CNC(=O)C2)cc1OC1CCCC1 (stereo unspecified)
- inhibition [1]: 77.2%
- inhibition [37]: 50.3%

SMILES: C=CCc1c(-c2cccc(NS(=O)(=O)c3cccs3)c2)oc(=O)c2ccc(Cl)cc12
- inhibition [1]: 75.7%
- IC50 [2]: 4010 nM

SMILES: C=CCc1c(-c2ccc(NS(=O)(=O)c3ccc(C)cc3)cc2)oc(=O)c2ccccc12
- inhibition [1]: 63.5%

SMILES: C=CCc1c(-c2cccc(NS(=O)(=O)c3ccc(C)cc3)c2)oc(=O)c2ccccc12
- inhibition [1]: 77.8%
- IC50 [2]: 2070 nM

SMILES: C=CCc1c(-c2cccc(NC(=O)c3ccccc3)c2)oc(=O)c2ccccc12
- inhibition [1]: 72.6%

SMILES: C=CCc1c(-c2cccc(NS(=O)(=O)c3ccccc3)c2)oc(=O)c2ccc(Cl)cc12
- inhibition [1]: 81.2%
- IC50 [2]: 4780 nM

SMILES: C=CCc1c(-c2cccc(NS(=O)(=O)c3ccc(OC)cc3)c2)oc(=O)c2ccccc12
- inhibition [1]: 80%
- IC50 [2]: 3330 nM

SMILES: C=CCc1c(-c2ccc(NS(C)(=O)=O)cc2)oc(=O)c2ccccc12
- inhibition [1]: 54.9%

SMILES: C=CCc1c(-c2cccc(NS(=O)(=O)c3ccccc3)c2)oc(=O)c2cc(F)ccc12
- inhibition [1]: 82.2%
- IC50 [2]: 430 nM
- IC50 [3]: 900 nM
- Ratio IC50 [4]: 2

SMILES: C=CCc1c(-c2cccc(NS(=O)(=O)c3cccs3)c2)oc(=O)c2ccccc12
- inhibition [1]: 85.9%
- IC50 [2]: 1760 nM

SMILES: C=CCc1c(-c2cccc(NC(=O)c3ccccc3)c2)oc(=O)c2cc(F)ccc12
- inhibition [1]: 74.6%

SMILES: C=CCc1c(-c2cccc(NS(=O)(=O)c3ccc(C(F)(F)F)cc3)c2)oc(=O)c2ccccc12
- inhibition [1]: 55.3%

SMILES: C=CCc1c(-c2ccc(NS(=O)(=O)c3ccccc3)cc2)oc(=O)c2ccccc12
- inhibition [1]: 87.6%
- IC50 [2]: 3910 nM

SMILES: C=CCc1c(-c2cccc(NS(C)(=O)=O)c2)oc(=O)c2cc(F)ccc12
- inhibition [1]: 90.9%
- IC50 [2]: 1940 nM

SMILES: C=CCc1c(-c2ccc(NS(C)(=O)=O)cc2)oc(=O)c2ccc(Cl)cc12
- inhibition [1]: 56%

SMILES: C=CCc1c(-c2ccc(NS(=O)(=O)c3ccccc3)cc2)oc(=O)c2cc(F)ccc12
- inhibition [1]: 94.4%
- IC50 [2]: 1910 nM

SMILES: C=CCc1c(-c2cccc(NS(=O)(=O)c3ccc(C)cc3)c2)oc(=O)c2cc(F)ccc12
- inhibition [1]: 79.7%
- IC50 [2]: 3040 nM

SMILES: C=CCc1c(-c2ccc(NS(=O)(=O)c3ccc(C)cc3)cc2)oc(=O)c2cc(F)ccc12
- inhibition [1]: 94%
- IC50 [2]: 2360 nM

SMILES: C=CCc1c(-c2cccc(NS(C)(=O)=O)c2)oc(=O)c2ccccc12
- inhibition [1]: 55.8%

SMILES: C=CCc1c(-c2ccc(NC(=O)c3ccccc3)cc2)oc(=O)c2ccccc12
- inhibition [1]: 46.5%

SMILES: CN(Cc1cnc2nc(N)nc(N)c2n1)c1ccc(C(=O)N[C@@H](CCC(=O)O)C(=O)O)cc1
- Activity [38]: Active
- Activity [39]: inactive
- Activity [29]: Active
